This note sets out measurements from ChEMBL document CHEMBL1201862, “PubChem BioAssay data set” (2004).

The structures appear in SMILES notation.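 Cells were grown in 96-well plates and exposed to each compound for 48 hours at five concentrations; endpoints were interpolated linearly between bracketing concentrations, or set to the highest concentration if not reached. GI50 = concentration required for 50% inhibition of growth.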 Active and inactive are the calls of the source. No stated cut-off is given here; in the data, active = GI50 up to about 1.1 µM and inactive = higher.

Common to all, as to test: NCI tumour cell line growth inhibition, 48 h
Assay [1] concerns 786-0.
Assay [2] has as its system BT-549.
Assay [3] relates to HCC 2998.
In assay [4] the test system is HCT-116.
Assay [5] has as its system HCT-15.
For assay [6], the system named is KM12.
Assay [7] concerns M14.
Assay [8] deals with MOLT-4.
Assay [9] deals with NCI-H226.
Assay [10] has as its system NCI-H460.
Assay [11] relates to OVCAR-4.
Assay [12] deals with RXF 393.
Assay [13] concerns SK-MEL-28.
The subject of assay [14] is SNB-19.
In assay [15] the test system is SNB-75.
The test system of assay [16] is T47D.
In assay [17] the test system is TK-10.
Assay [18] deals with UACC-257.
The subject of assay [19] is UACC-62.
The subject of assay [20] is A498.

Consider `COP(=O)(CC(=O)C1OC(OCc2ccccc2)C(OCc2ccccc2)C(OCc2ccccc2)C1OCc1ccccc1)OC` (stereo unspecified), for which the GI50 is 12.5 µM (inactive) in assay [1]; 17.4 µM (inactive) in assay [2]; 3.32 µM (inactive) in [3]; 5.11 µM (inactive) in assay [4]; 4.83 µM in [5]; 4.16 µM (inactive) in assay [6]. Further, the GI50 was 10.9 µM (inactive) in assay [7]; 2.69 µM (inactive) in [8]; 4.91 µM (inactive) in assay [9]; 4.24 µM (inactive) in [10]; 2.19 µM (inactive) in [11]; 2.62 µM (inactive) in assay [12]. Moreover, the GI50 in assay [13] is 54 µM (inactive); in assay [14], 11.4 µM (inactive); in assay [15] it was 7.76 µM (inactive); in assay [16] it was 4.3 µM (inactive); in assay [17] it was 15.3 µM (inactive); in assay [18], 6.81 µM (inactive). Besides, the GI50 in [19] was 4.12 µM (inactive).

As for `COc1cc(C[C@H]2C(=O)OC[C@@H]2Cc2ccc(OC)c(OC)c2)cc(OC)c1`, the GI50 was > 100 µM (inactive) in [1]; 16.8 µM (inactive) in assay [2]; > 100 µM (inactive) in [3]; 34.7 µM (inactive) in [4]; 53.3 µM in assay [5]; 51.6 µM (inactive) in assay [6]. For the same compound, the GI50 was 93.8 µM (inactive) in assay [7]; 27.2 µM (inactive) in assay [8]; > 100 µM (inactive) in assay [9]; > 100 µM (inactive) in assay [10]; 29.7 µM (inactive) in assay [11]; > 100 µM (inactive) in assay [12]. The GI50 in assay [13] was 62.2 µM (inactive); in assay [14] it was > 100 µM (inactive); in assay [15] it was 40.6 µM (inactive); in assay [16], 35.2 µM (inactive); in assay [17] it was > 100 µM (inactive); in assay [18] it was 51.5 µM (inactive). Besides, the GI50 in [19] is 62.8 µM (inactive).

As to `CCOC(=O)CCc1c(C(=O)OCC)[nH]c(/C=C2/NC(=O)C(C)=C2CC)c1C`, the GI50 in assay [1] is 15.8 µM (inactive); in assay [20] it was 17.1 µM (inactive); in assay [2] it was 1.61 µM (inactive); in assay [4], 13.1 µM (inactive); in assay [5], 3.47 µM; in assay [6], 10.9 µM (inactive). In addition, the GI50 in assay [7] was 7.28 µM (inactive); in assay [8] it was 0.0224 µM (active); in assay [9] it was 16.9 µM (inactive); in assay [10] it was 32.7 µM (inactive); in assay [11] it was 2.9 µM (inactive); in assay [12] it was 11.1 µM (inactive). In addition, the GI50 in assay [13] was 13.7 µM (inactive); in assay [14], 13.1 µM (inactive); in [15] it was 15.4 µM (inactive); in assay [16], 2.11 µM (inactive); in assay [17], 24.7 µM (inactive); in assay [18], 10.1 µM (inactive). In assay [19], the GI50 was 4.9 µM (inactive).

On to `CCCN(CCC)C(=S)N/N=C(/C)c1ccccc1O`, for which the GI50 was 3.32 µM (inactive) in [1]; 14.3 µM (inactive) in assay [20]; 5.25 µM (inactive) in [2]; 10.3 µM (inactive) in assay [3]; 4.04 µM (inactive) in assay [4]; 3.48 µM in assay [5]. Besides, the GI50 in assay [6] is 4.98 µM (inactive); in [7] it was 2.94 µM (inactive); in assay [8], 4.04 µM (inactive); in assay [10] it was 2.51 µM (inactive); in assay [11], 5.96 µM (inactive); in assay [12] it was 23.6 µM (inactive). The GI50 in assay [13] is 7.28 µM (inactive); in assay [14], 14.3 µM (inactive); in assay [15] it was 5.56 µM (inactive); in assay [16] it was 3.61 µM (inactive); in [17], 6.19 µM (inactive); in [18], 7.71 µM (inactive). For the same compound, the GI50 in [19] is 3.19 µM (inactive).

As to `Cc1c(S(=O)(=O)/N=C(\NN)Nc2ccc(Cl)cc2)sc2ccc(Cl)cc12`, the GI50 is 17.5 µM (inactive) in [1]; 15.8 µM (inactive) in assay [20]; 16.7 µM (inactive) in assay [2]; 13.3 µM (inactive) in [4]; 16.6 µM in [5]; 15.3 µM (inactive) in assay [6]. Further, the GI50 in assay [7] is 20.5 µM (inactive); in assay [8], 13.1 µM (inactive); in [9] it was 20 µM (inactive); in [10], 16.6 µM (inactive); in assay [11] it was 15.5 µM (inactive); in assay [12], 11.1 µM (inactive). In addition, the GI50 in assay [13] was 20.6 µM (inactive); in assay [14], 23.3 µM (inactive); in assay [15], 14.8 µM (inactive); in assay [16] it was 10.2 µM (inactive); in [17], 17 µM (inactive); in assay [18], 18.2 µM (inactive). Besides, in assay [19], the GI50 was 14.2 µM (inactive).

Take `N#CCCOc1cccc(C2(N3CCCCC3)CCCCC2)c1`: the GI50 was > 100 µM (inactive) in [1]; > 100 µM (inactive) in [20]; > 100 µM (inactive) in assay [2]; > 100 µM (inactive) in assay [4]; over 100 µM in [5]; > 100 µM (inactive) in assay [6]. Besides, the GI50 in [7], in [8], in assay [9], in assay [11], in assay [13] and in assay [14] was > 100 µM (inactive) in each case. Besides, the GI50 in [16], in assay [17], in [18] and in [19] was > 100 µM (inactive) throughout.

For `Cc1cc2[n-][n+]3ncc(-c4ccccc4)n3c2cc1[N+](=O)[O-]`, the GI50 in assay [1] is > 100 µM (inactive); in [20] it was > 100 µM (inactive); in assay [2] it was > 100 µM (inactive); in assay [4] it was > 100 µM (inactive); in assay [5], over 100 µM; in assay [6] it was > 100 µM (inactive). Moreover, the GI50 in assay [8], in [10], in assay [11], in assay [12], in assay [13] and in assay [14] was > 100 µM (inactive) in each case. For the same compound, the GI50 in [15], in [16], in [17], in assay [18] and in assay [19] was > 100 µM (inactive) in each case.

For the compound `CCC1CCC2c3c([nH]c4ccccc34)C3C(=O)N(c4ccc(OC)cc4)C(=O)C3C2C1` (stereo unspecified), the GI50 in assay [1] was > 100 µM (inactive); in [2], > 100 µM (inactive); in [3], 91.2 µM (inactive); in assay [4] it was 20 µM (inactive); in assay [5] it was 35.1 µM; in [6] it was 93.5 µM (inactive). The GI50 in assay [7] is 63 µM (inactive); in [8] it was 16.7 µM (inactive); in assay [9], > 100 µM (inactive); in assay [10] it was 30.4 µM (inactive); in [11], 14.9 µM (inactive); in assay [12] it was > 100 µM (inactive). The GI50 in assay [13] is 63.8 µM (inactive); in assay [14] it was 28.3 µM (inactive); in assay [15] it was 19.5 µM (inactive); in [16], 16.8 µM (inactive); in assay [17], 28.2 µM (inactive); in [18], > 100 µM (inactive). Also, the GI50 in assay [19] is 61.8 µM (inactive).

`O=c1c(Cc2ccccc2Cc2c(O)oc3ccccc3c2=O)c(O)oc2ccccc12`: the GI50 in assay [1] is > 100 µM (inactive); in assay [20], > 100 µM (inactive); in assay [2], > 100 µM (inactive); in assay [4], > 100 µM (inactive); in [5], over 100 µM; in assay [6], > 100 µM (inactive). Also, the GI50 in [7], in assay [8], in assay [9], in assay [10], in assay [11] and in [12] was > 100 µM (inactive) in each case. In addition, the GI50 in [13] is > 100 µM (inactive); in assay [14], > 100 µM (inactive); in assay [15], 31.6 µM (inactive); in assay [16], > 100 µM (inactive); in assay [17], > 100 µM (inactive); in assay [18], > 100 µM (inactive). Moreover, the GI50 in [19] is > 100 µM (inactive).

Turning to `C1CSCCSCCCSCCSCCCSCCSCCCSCCSC1`, the GI50 was > 100 µM (inactive) in [1]; > 100 µM (inactive) in assay [20]; > 100 µM (inactive) in [2]; > 100 µM (inactive) in assay [3]; 62.8 µM (inactive) in [4]; over 100 µM in [5]. The GI50 in [6], in assay [7], in assay [8], in assay [9], in [10] and in assay [11] was > 100 µM (inactive) each time. Also, the GI50 in assay [12] is > 100 µM (inactive); in [13], > 100 µM (inactive); in assay [14], > 100 µM (inactive); in assay [16], 57 µM (inactive); in [17], > 100 µM (inactive); in assay [18], > 100 µM (inactive).

As to `O=C(c1c(F)c(F)c(F)c(F)c1F)n1c(=S)n(C(=O)c2c(F)c(F)c(F)c(F)c2F)c2ccccc21`, the GI50 in assay [1] was > 100 µM (inactive); in assay [2] it was > 100 µM (inactive); in assay [3], > 100 µM (inactive); in assay [4], > 100 µM (inactive); in assay [5], over 100 µM; in assay [6], > 100 µM (inactive). Besides, the GI50 in [7] was > 100 µM (inactive); in assay [8], 20 µM (inactive); in [10], > 100 µM (inactive); in assay [11], 95.5 µM (inactive); in assay [13] it was 59.2 µM (inactive); in [14] it was > 100 µM (inactive). The GI50 in [15] is > 100 µM (inactive); in assay [16], 82.4 µM (inactive); in assay [17], > 100 µM (inactive); in assay [18], > 100 µM (inactive); in [19] it was 24.7 µM (inactive).
